Experimental findings from patent US20220125745A1, “PHARMACEUTICAL COMPOSITION FOR CO-ADMINISTRATION OF ACIDOSIS-INDUCING DRUG” (HAIM BIO CO., LTD., priority 2018, published 2022) are described below.

Read-outs that look alike come from different tables or passages of the source.

In experiment [1] the test system is A549 cells (cancer cells). The experiment is described as follows: Lactate assay (luminescence) in A549 cells, candidate substance alone or combined with a substance that causes lactic acidosis. In kind it is cell-based. The conditions noted are these: A549; for activity at 50 µM: Homo sapiens; for activity at 50 µM / Luminescence intensity (%), Berberine (10 μM) − / Luminescence intensity (%), Linezolid (200 μM) − / Luminescence intensity (%), Phenformin (100 μM) −: candidate 50 μM alone, 24 h, vs negative control, mean ± SEM. As to the method: (§1) To identify the effects of administration of the candidate substances for lactic acidosis treatment as described in Example 1 in combination with the above-mentioned substances that cause lactic acidosis, A549 cells (cancer cells) or L132 cells (normal cells) were respectively seeded in 96- or 24-well plates at a concentration of 1×10^4 or 3×10^5 cells/well, and incubation was performed overnight. Administration of the candidate substance for acidosis treatment in combination with the substance that causes lactic acidosis was performed and incubation was further performed for 24 hours. For the candidate substances for acidosis treatment, each substance was administered at a uniform concentration of 50 μM; and for the substances that cause lactic acidosis, metformin was administered at 1 to 100 μM, isoniazid was administered at 1 to 500 μM, berberine was administered at 10 μM, linezolid was administered at 200 μM, and phenformin was administered at 100 μM. All substances were dissolved in dimethyl sulfoxide (DMSO, Sigma-Aldrich Corporation, St. Louis, Mo., USA), and the substances to be administered in combination were administered simultaneously. Subsequently, 50 μl of the cell culture solution obtained by being diluted with Dulbecco's Phosphate-Buffered Saline (DPBS; Wellgene, Korea), and 50 μl of the lactate assay reaction buffer (Promega, Madison, Wis., USA) were mixed and the mixture was added in a 96-well plate. Reaction was allowed to proceed at room temperature for 1 hour. Then, luminescence was measured with a spectrophotometer (Synergy HTX Multi-Reader; BioTek, Winooski, Vt., USA). At the same time, the number of cells in each sample was measured with a cell viability analysis kit (Cell Counting Kit-8; Dojindo Molecular Technologies, Inc., Kumamoto, Japan), and calculation was performed so that the lactic acid measurement value in each sample could be compared with that in the negative control for the same number of cells.

The subject of experiment [2] is L132 cells (normal cells). The experiment is described as follows: Lactate assay (luminescence) in L132 cells, candidate substance alone or combined with a substance that causes lactic acidosis. In kind it is cell-based. The conditions noted are these: L132; for activity at 50 µM: Homo sapiens; for activity at 50 µM / Luminescence intensity (%), Berberine (10 μM) − / Luminescence intensity (%), Linezolid (200 μM) − / Luminescence intensity (%), Phenformin (100 μM) −: candidate 50 μM alone, 24 h, vs negative control, mean ± SEM. As to the method: as §1

Where [3] appears, read: candidate 50 μM + berberine 10 μM, relative to berberine alone (PC).
The mark [4] stands for this setting: candidate 50 μM + linezolid 200 μM, relative to linezolid alone (PC).
The mark [5] stands for this setting: candidate 50 μM + phenformin 100 μM, relative to phenformin alone (PC).
The mark [6] stands for this setting: no berberine, read-out: Luminescence intensity (%), Berberine (10 μM) −.
Where [7] appears, read: no linezolid, read-out: Luminescence intensity (%), Linezolid (200 μM) −.
Where [8] appears, read: no phenformin, read-out: Luminescence intensity (%), Phenformin (100 μM) −.

Turning to `O=C(O)c1cc(=O)c2ccccc2[nH]1` [Kynurenic acid], the “Lactic acid value vs. PC (%)” value in experiment [1] (setting [3]) was determined as 101.87%; in experiment [1] (setting [4]), 91.54%; in experiment [1] (setting [5]), 92.58%; in experiment [2] (setting [3]) it was 90.59%; in experiment [2] (setting [4]), 93.53%; in experiment [2] (setting [5]) it was 91.70%. Besides, the “Lactic acid-decreasing rate vs. PC (%)” value in experiment [1] (setting [3]) is −1.87%; in experiment [1] (setting [4]) it was 8.46%; in experiment [1] (setting [5]) it was 7.42%; in experiment [2] (setting [3]) it was 9.41%; in experiment [2] (setting [4]), 6.47%; in experiment [2] (setting [5]) it was 8.30%. For the same compound, the activity at 50 µM came to 93.9 ± 1.1% in experiment [1] (setting [6]); 93.9 ± 1.1% in experiment [1] (setting [7]); 93.9 ± 1.1% in experiment [1] (setting [8]); 93.7 ± 1.3% in experiment [2] (setting [6]); 93.7 ± 1.3% in experiment [2] (setting [7]); 93.7 ± 1.3% in experiment [2] (setting [8]).
As for `CCCCNC(=O)n1c(NC(=O)OC)nc2ccccc21` [Benomyl], the “Lactic acid value vs. PC (%)” value in experiment [1] (setting [3]) stood at 88.55%; in experiment [1] (setting [4]) it was 84.32%; in experiment [1] (setting [5]), 92.74%; in experiment [2] (setting [3]), 85.38%; in experiment [2] (setting [4]), 84.83%; in experiment [2] (setting [5]), 93.03%. In addition, the “Lactic acid-decreasing rate vs. PC (%)” value is 11.45% in experiment [1] (setting [3]); 15.68% in experiment [1] (setting [4]); 7.26% in experiment [1] (setting [5]); 14.62% in experiment [2] (setting [3]); 15.17% in experiment [2] (setting [4]); 6.97% in experiment [2] (setting [5]). Moreover, the activity at 50 µM was determined as 87.7 ± 1.21% in experiment [1] (setting [6]); 87.7 ± 1.21% in experiment [1] (setting [7]); 87.7 ± 1.21% in experiment [1] (setting [8]); 85.4 ± 1.55% in experiment [2] (setting [6]); 85.4 ± 1.55% in experiment [2] (setting [7]); 85.4 ± 1.55% in experiment [2] (setting [8]).
Turning to `C#CCN(C)Cc1ccccc1` [Pargyline], the “Lactic acid value vs. PC (%)” value was 101.89% in experiment [1] (setting [3]); 98.24% in experiment [1] (setting [4]); 95.59% in experiment [1] (setting [5]); 101.56% in experiment [2] (setting [3]); 88.70% in experiment [2] (setting [4]); 100.88% in experiment [2] (setting [5]). The “Lactic acid-decreasing rate vs. PC (%)” value in experiment [1] (setting [3]) is recorded as −1.89%; in experiment [1] (setting [4]), 1.76%; in experiment [1] (setting [5]), 4.41%; in experiment [2] (setting [3]) it was −1.56%; in experiment [2] (setting [4]) it was 11.30%; in experiment [2] (setting [5]), −0.88%. The activity at 50 µM was determined as 95.68 ± 0.7% in experiment [1] (setting [6]); 95.68 ± 0.7% in experiment [1] (setting [7]); 95.68 ± 0.7% in experiment [1] (setting [8]); 96.1 ± 1.32% in experiment [2] (setting [6]); 96.1 ± 1.32% in experiment [2] (setting [7]); 96.1 ± 1.32% in experiment [2] (setting [8]).
With `O=CC(=O)c1ccccc1` [Phenylglyoxal], the “Lactic acid value vs. PC (%)” value in experiment [1] (setting [3]) is 90.18%; in experiment [1] (setting [4]) it was 82.74%; in experiment [1] (setting [5]), 89.61%; in experiment [2] (setting [3]), 90.06%; in experiment [2] (setting [4]) it was 88.89%; in experiment [2] (setting [5]), 96.12%. Moreover, the “Lactic acid-decreasing rate vs. PC (%)” value in experiment [1] (setting [3]) turned out to be 9.82%; in experiment [1] (setting [4]), 17.26%; in experiment [1] (setting [5]) it was 10.39%; in experiment [2] (setting [3]) it was 9.94%; in experiment [2] (setting [4]) it was 11.11%; in experiment [2] (setting [5]) it was 3.88%. Also, the activity at 50 µM worked out at 97.3 ± 1.03% in experiment [1] (setting [6]); 97.3 ± 1.03% in experiment [1] (setting [7]); 97.3 ± 1.03% in experiment [1] (setting [8]); 93.7 ± 1.34% in experiment [2] (setting [6]); 93.7 ± 1.34% in experiment [2] (setting [7]); 93.7 ± 1.34% in experiment [2] (setting [8]).
On to `CS(=O)(=O)Nc1ccc(-c2coc3cc(OCc4cccc(C(=O)O)c4)ccc3c2=O)cc1` [CVT-10216, 3-[[[3-[4-[(methylsulfonyl)amino]phenyl]-4-oxo-4H-chromen-7-yl]oxy]methyl]benzoic acid], for which the “Lactic acid value vs. PC (%)” value in experiment [1] (setting [3]) was found to be 95.79%; in experiment [1] (setting [4]), 92.93%; in experiment [1] (setting [5]) it was 92.13%; in experiment [2] (setting [3]), 103.15%; in experiment [2] (setting [4]) it was 100.28%; in experiment [2] (setting [5]), 99.21%. For the same compound, the “Lactic acid-decreasing rate vs. PC (%)” value in experiment [1] (setting [3]) is reported as 4.21%; in experiment [1] (setting [4]), 7.07%; in experiment [1] (setting [5]), 7.87%; in experiment [2] (setting [3]), −3.15%; in experiment [2] (setting [4]), −0.28%; in experiment [2] (setting [5]), 0.79%. For the same compound, the activity at 50 µM in experiment [1] (setting [6]) is 96.5 ± 1.04%; in experiment [1] (setting [7]) it was 96.5 ± 1.04%; in experiment [1] (setting [8]) it was 96.5 ± 1.04%; in experiment [2] (setting [6]), 97.7 ± 1.1%; in experiment [2] (setting [7]), 97.7 ± 1.1%; in experiment [2] (setting [8]), 97.7 ± 1.1%.
With `Nc1c(O)cccc1C(=O)CC(N)C(=O)O` (racemic) [3-hydroxy-DL-kynurenine, 3-Hydroxy-DL-kynurenine], the “Lactic acid value vs. PC (%)” value in experiment [1] (setting [3]) was 92.55%; in experiment [1] (setting [4]), 83.68%; in experiment [1] (setting [5]), 91.34%; in experiment [2] (setting [3]), 87.31%; in experiment [2] (setting [4]) it was 86.39%; in experiment [2] (setting [5]), 91.76%. For the same compound, the “Lactic acid-decreasing rate vs. PC (%)” value in experiment [1] (setting [3]) came out at 7.45%; in experiment [1] (setting [4]) it was 16.32%; in experiment [1] (setting [5]), 8.66%; in experiment [2] (setting [3]), 12.69%; in experiment [2] (setting [4]), 13.61%; in experiment [2] (setting [5]), 8.24%. In addition, the entries for the “Luminescence intensity (%), Berberine (10 μM) −” value in experiment [1] (no berberine) and in experiment [2] (no berberine) were 91.52 ± 1.46 % and 87.48 ± 1.65 %, respectively. The “Luminescence intensity (%), Linezolid (200 μM) −” value in experiment [1] (no linezolid) was determined as 91.52 ± 1.46 %; in experiment [2] (no linezolid), 87.48 ± 1.65 %. Moreover, the “Luminescence intensity (%), Phenformin (100 μM) −” value in experiment [1] (no phenformin) is reported as 91.52 ± 1.46 %; in experiment [2] (no phenformin), 87.48 ± 1.65 %.
On to `N.N.[Cl][Pt][Cl]` [CDDP, Cis-diamminedichloridoplatinum], for which the “Lactic acid value vs. PC (%)” value was 74.20% in experiment [1] (setting [3]); 78.37% in experiment [1] (setting [4]); 80.03% in experiment [1] (setting [5]); 71.42% in experiment [2] (setting [3]); 68.28% in experiment [2] (setting [4]); 83.98% in experiment [2] (setting [5]). The “Lactic acid-decreasing rate vs. PC (%)” value came to 25.80% in experiment [1] (setting [3]); 21.63% in experiment [1] (setting [4]); 19.97% in experiment [1] (setting [5]); 28.58% in experiment [2] (setting [3]); 31.72% in experiment [2] (setting [4]); 16.02% in experiment [2] (setting [5]). Further, the “Luminescence intensity (%), Berberine (10 μM) −” value is 75.98 ± 2.34 % in experiment [1] (no berberine) and 76.97 ± 2.13 % in experiment [2] (no berberine). Further, the “Luminescence intensity (%), Linezolid (200 μM) −” value worked out at 75.98 ± 2.34 % in experiment [1] (no linezolid) and 76.97 ± 2.13 % in experiment [2] (no linezolid). Besides, the figures for the “Luminescence intensity (%), Phenformin (100 μM) −” value in experiment [1] (no phenformin) and in experiment [2] (no phenformin) were 75.98 ± 2.34 % and 76.97 ± 2.13 %, respectively.
